Legend:
[1] = tested on: myocardial infarction (ischemia-reperfusion); experiment: Model of ischemia-reperfusion in the rabbit, cardioprotective effect (infarction size); type: in vivo
Method: The aim of this study is to test the cardioprotective effect of the cyclic undecapeptide of formula (I), otherwise referred to as [MeAla]^3-[EtVal]^4-CsA, in terms of reduction in the size of the myocardial infarction measured 4 hours after the occurrence of the infarction.
After tracheotomy and ventilation with ambient air, a thoracotomy is performed in the fourth left intercostal space. A marginal branch of the left circumflex coronary artery is ligatured using a 3.0 silk suture thread. During the procedure, the temperature, the heart rate and the blood pressure are controlled. After occlusion for 30 minutes, the ligature is released (reperfusion) and the animals are kept in a controlled atmosphere for 4 hours before euthanasia.
One group of animals receives the pharmaceutical carrier for [MeAla]^3-[EtVal]^4-CsA, another group is treated with [MeAla]^3-[EtVal]^4-CsA intravenously in the form of a single injection respectively of 20 mg/kg, one minute before the ligature is released. Four hours after the reperfusion, the coronary artery is briefly reoccluded and a blue dye is injected intravenously so as to determine the zone at risk. […] The areas of the zones at risk and of the infarcted myocardium or area of necroses are determined by planimetry. The size of the infarction and the size of the zone at risk are calculated and expressed as percentage of left ventricular weight.

[2] = tested on: myocardial infarction (ischemia-reperfusion); experiment: Model of ischemia-reperfusion in the mouse, post-infarction period (infarction size, ventricular remodeling, survival); type: in vivo
Method: After anesthesia, the mice are intubated and ventilated with a rodent ventilator. The rectal temperature is controlled and maintained at 38°-39° C. After sternotomy, the anterior interventricular artery is ligatured with an 8-0 polypropylene thread. The ischemia is visualized through the appearance of an elevated ST segment on the ECG (electrocardiogram) and the paleness of the myocardium. After 25 minutes of occlusion, the ligature is released and the reperfusion is verified by visual inspection and disappearance of the upshift in the ST segment. The thoracic wall is closed by suturing and the mice are kept in a controlled-temperature atmosphere.
One group of animals receives the carrier for [MeAla]^3-[EtVal]^4-CsA; another group is treated with [MeAla]^3-[EtVal]^4-CsA by intravenous injection (single injection at 10 mg/kg), 3 minutes before the ligature is released. The animals are monitored for 30 days and the mortality is reported for each group.
Four weeks after the reperfusion, the left ventricular remodeling is studied by Doppler echocardiography and the left ventricular ejection fraction is measured.
The zone at risk and the size of the infarction are determined in a group of animals that have undergone 25 minutes of coronary occlusion followed by 24 hours of reperfusion. After a brief reocclusion of the anterior interventricular artery, a blue dye is injected via the vena cava so as to determine the zone at risk. The animals are anesthetized and the heart is excised. The ventricle is cut into 5 thin slices and photographed. Incubation of these slices in 2,3,5-triphenyltetrazolium for 15 minutes at 37° C. makes it possible to differentiate the live (brick red) and necrosed (pale yellow) zones of the myocardium. The slices are photographed. The areas of the zones at risk and of the infarcted myocardium are determined by planimetry. The size of the infarction and the size of the zone at risk are calculated and expressed as percentage of left ventricular weight.

[3] = tested on: septic shock with myocardial dysfunction; experiment: Model of septic shock in the mouse (cecal ligature and puncture), survival; type: in vivo; conditions: 10 mg/kg parenteral injection just after induction of septic shock, 72 hours after induction of the sepsis (FIG. 2)
Method: After the mice had been anesthetized, a peritonitis is induced by cecal ligature and puncture, as follows: a median laparotomy is performed, the cecum is lifted out and a single puncture of said cecum is performed below the ileocecal valve with a 21-gauge needle. The cecum is put back into the abdominal cavity, which is then sutured in 2 planes. After the mice have come round, they are given a parenteral injection of the analgesic nalbuphine.
One group of animals receives physiological saline (control group); another group is treated with [MeAla]^3-[EtVal]^4-CsA at a rate of 10 mg/kg by parenteral injection just after surgical induction of septic shock. The animals are monitored for 4 days and the mortality is reported for each group.

[4] = tested on: human immunodeficiency virus; conditions: cited from earlier work
[5] = compared with cyclosporin A; cited from earlier work
[6] = tested on: MPTP of mitochondria isolated from the brain; conditions: Hansson et al. 2004; cited from earlier work

[MeAla]^3-[EtVal]^4-CsA
decrease in the size of the infarction in the zone at risk compared with pharmaceutical carrier ([1]; 20 mg/kg i.v., 4 hours after reperfusion): ~40%
Infarction size (AN/AR ± SD) ([1]; 30 min occlusion, single i.v. injection 20 mg/kg one minute before ligature release, measured 4 hours after reperfusion): 29 ± 6.0%
Left ventricular ejection fraction ± SD ([2]; mouse, 10 mg/kg i.v. 3 minutes before ligature release, Doppler echocardiography 4 weeks after reperfusion): 77 ± 6%
mortality rate at 4 weeks ([2]; mouse, 10 mg/kg i.v. 3 minutes before ligature release, vs carrier (FIG. 1)): a decrease in the mortality rate
decrease in the size of the infarction in the zone at risk ([2]; mouse, 10 mg/kg i.v., 24 hours after reperfusion, vs carrier (table 2)): ~50%
Infarction size (AN/AR ± SD) ([2]; mouse, 25 min occlusion, single i.v. injection 10 mg/kg 3 minutes before ligature release, 24 hours after reperfusion): 32.1 ± 7.3%
beneficial effects when administration is too early or too late relative to the reperfusion ([2]; same dose of active compound): not obtained
survival rate [3]: approximately 60%
activity in terms of inhibiting the action of the human immunodeficiency virus [4]: strong activity
immunosuppressive properties [5]: not having the well-known immunosuppressive properties
neuroprotective potential: inhibition of MPTP [6]: inhibition of MPTP
